Assays:
[1] = biological target: T1, MerTK (Homo sapiens, UniProt Q12866); design: method as in PMID 34038857; details: read-out: Ki against MerTK; cited from earlier work
T1 sequence (Q12866 21-999): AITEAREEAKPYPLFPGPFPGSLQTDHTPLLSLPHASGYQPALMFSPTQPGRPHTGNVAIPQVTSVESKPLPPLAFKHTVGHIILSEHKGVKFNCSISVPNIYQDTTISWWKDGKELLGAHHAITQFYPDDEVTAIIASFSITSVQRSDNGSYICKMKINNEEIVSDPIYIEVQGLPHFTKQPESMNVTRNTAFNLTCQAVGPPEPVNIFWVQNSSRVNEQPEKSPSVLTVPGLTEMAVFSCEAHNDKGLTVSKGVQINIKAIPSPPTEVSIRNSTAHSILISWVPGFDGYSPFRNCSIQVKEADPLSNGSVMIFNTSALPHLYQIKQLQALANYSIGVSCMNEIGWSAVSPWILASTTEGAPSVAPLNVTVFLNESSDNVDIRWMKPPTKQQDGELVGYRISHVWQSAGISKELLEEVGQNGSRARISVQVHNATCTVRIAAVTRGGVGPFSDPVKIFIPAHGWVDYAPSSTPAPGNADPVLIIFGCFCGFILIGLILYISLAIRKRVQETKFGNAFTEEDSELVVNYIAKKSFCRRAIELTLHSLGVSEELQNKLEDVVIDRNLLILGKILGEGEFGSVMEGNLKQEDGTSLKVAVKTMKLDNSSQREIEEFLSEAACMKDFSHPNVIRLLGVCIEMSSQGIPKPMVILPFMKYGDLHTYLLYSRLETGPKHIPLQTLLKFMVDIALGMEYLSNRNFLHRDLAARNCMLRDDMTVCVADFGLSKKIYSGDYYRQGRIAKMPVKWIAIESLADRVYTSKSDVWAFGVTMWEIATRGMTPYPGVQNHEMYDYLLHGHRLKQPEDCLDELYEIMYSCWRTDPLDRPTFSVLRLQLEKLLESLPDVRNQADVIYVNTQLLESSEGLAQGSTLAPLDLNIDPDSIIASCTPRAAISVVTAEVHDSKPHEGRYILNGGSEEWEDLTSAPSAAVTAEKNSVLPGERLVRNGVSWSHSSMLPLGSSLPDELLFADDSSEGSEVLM

[2] = test system: kinome; design: method as in PMID 34038857; details: at 100 nM, against the kinome; cited from earlier work
[3] = 1-octanol/water partition coefficient (LogP) by gamma counting; type: physicochemical; details: pH 7.4, sample pH around 7.4, n = 3, mean ± SD
Procedure: In order to evaluate the hydrophilicity and lipophilicity of this fluorine-18 labeled agent [^18F]-MerTK-6, we measured the 1-octanol/water partition coefficient (LogP) of [^18F]-MerTK-6. The resulting fractions were counted using a gamma counter. The reaction was repeated three times.
The LogP value of the [^18F]-MerTK-6 was calculated by the gamma particle counts of samples in the aqueous phase or 1-octanol phase by Automatic Gamma Counter 2480-0010 (PerkinElmer Instruments Inc., Waltham, MA, USA).
The [^18F]-MerTK-6 was collected after HPLC purification. After reformulation (pH value around 7.4), 20 µL [^18F]-MerTK-6 sample in saline was added to the mixture of 1 mL Mili-Q® water and 1 mL 1-octanol in a 5 mL Eppendorf tube. The tube was shacked thoroughly and then let stand still for 5 min. Then the 100 µL 1-octanol phase and 100 µL aqueous phase were subjected to a gamma counter separately and the gamma counts were recorded (n = 3). The LogP value was then calculated and expressed as a mean value± standard derivation.

[4] = test system: B16F10 tumor-bearing mice; assay: PET imaging in B16F10 tumor-bearing mice; type: in vivo; details: for uptake in kidney / uptake in liver / uptake in muscle / uptake in tumor: i.v., PET ROI, n = 3
Procedure: Evaluation of the PET agent [^18F]-MerTK-6 was performed on B16F10 tumor-bearing mice. At 30 min post-injection (p.i), the uptake in tumor, liver, kidney, and muscle was 4.65 ± 1.25, 14.79 ± 0.99, 10.42 ± 1.01, and 2.51 ± 0.48%ID/g, respectively. The uptake at 2 h p.i. was 4.79 ± 0.24, 9.72 ± 1.56, 5.34 ± 1.25, and 1.55 ± 0.23%ID/g, respectively. Overall, the tumor uptake was maintained at ~5%ID/g and the tumor to muscle contrast increased to 3.09 at 2 h p.i, compared with 1.86 at 0.5 h p.i.
All animal studies were reviewed and approved by The University of North Carolina at Chapel Hill Institutional Animal Care and Use Committee. The B16F10 tumor cell was obtained from the LCCC tissue culture facility (the University of North Carolina at Chapel Hill, Chapel Hill, NC, USA). The B16F10 tumor-bearing […] mouse model was prepared as described previously. Briefly, B16/F10 cells were subcutaneously injected on the right flank of C57BL/6 female mice (Jackson Laboratory). The tumor volume was measured daily. When the tumor size reached 100 mm^3, the mice were used for PET imaging studies.
B16F10 tumor-bearing mice (n = 3/group) were intravenously injected via the tail vein with tracers. At 30 min and 120 min post-injection, a 10-min static emission scan was acquired with a SuperArgus small-animal PET/CT scanner. The regions of interests (ROIs) were drawn over the tumor and other organs and calculated as %ID/g. The mean uptake and standard deviation were calculated.

SMILES	Ki [1]	Ambit selectivity score S50 [2]	logP [3]	tumor to muscle ratio ([4]; 0.5 h post-injection)	uptake in kidney ([4]; 30 min post-injection)	uptake in liver ([4]; 30 min post-injection)	uptake in muscle ([4]; 30 min post-injection)	uptake in tumor ([4]; 30 min post-injection)	tumor to muscle ratio ([4]; 2 h post-injection)	uptake in kidney ([4]; 2 h post-injection)	uptake in liver ([4]; 2 h post-injection)	uptake in muscle ([4]; 2 h post-injection)	uptake in tumor ([4]; 2 h post-injection)	tumor uptake (overall, maintained) ([4]; overall, 0.5 h to 2 h post-injection)
CCC[C@H](C)Nc1ncc2c(C3CCN(C(=O)c4cc(C)nc(C)c4)CC3)cn(C3CCC(O)CC3)c2n1 (some centres unmarked) [UNC5293]	0.19 nM	0.041	–	–	–	–	–	–	–	–	–	–	–	–
C[C@H](Nc1ncc2c(C3CCN(CC[18F])CC3)cn([C@H]3CC[C@H](O)CC3)c2n1)c1ccccc1 [[^18F]-MerTK-6]	–	–	1.56 ± 0.02	1.86	10.42 ± 1.01 %ID/g	14.79 ± 0.99 %ID/g	2.51 ± 0.48 %ID/g	4.65 ± 1.25 %ID/g	3.09	5.34 ± 1.25 %ID/g	9.72 ± 1.56 %ID/g	1.55 ± 0.23 %ID/g	4.79 ± 0.24 %ID/g	~ 5 %ID/g

From PMC8911752, “The Synthesis and Initial Evaluation of MerTK Targeted PET Agents” (Molecules, 2022)
